US6277829A, “Process for preparing of aqueous formulation for opthalmic use” (S.I.F.I. Societa Industria Farmaceutica Italiana S.p.A., priority 1999, dated 2001)
Values after ≈ are worked out from the molar mass of the structure shown.

How the values were obtained:
gram-positive organisms = conditions: compared with other macrolides; cited from earlier work
[1] = Procedure: The final solution (100 ml), has been sterilized and distributed in appropriate vials.
[2] = background statement; cited from earlier work
[3] = titration of azithromycin and clarithromycin, dispersed in water, with citric acid (FIG. 1, FIG. 2); type: physicochemical
St. Pyogenes ATCC 21547 = assay: In vitro antibacterial activity, MBC; type: cell-based; conditions: Streptococcus pyogenes
Procedure: (§1) In vitro bacteriostatic/bactericidal activity of azithromycin in different ophthalmic solutions has been evaluated as a function of ([H+]). Assessment of the activity it has been carried out by standardized method recommended by the National Committee for Clinical Laboratory Standards (NCCLS). […] Accordingly, three aliquots of Mueller-Hinton broth have been adjusted to the same pH of the azithromycin solutions (three) to be tested. […] Incubation for Staphylococcus spp. and Pseudomonas spp. needs aerobic conditions whereas Streptococcus spp. and Haernophilus spp. require partial anaerobic conditions during the period of incubation (5%, CO2).

Ps. aeruginosa ATCC 9027 = assay: In vitro antibacterial activity, MBC; type: cell-based; conditions: Pseudomonas aeruginosa
Procedure: as §1

H. influenzae ATCC 9006 = assay: In vitro antibacterial activity, MBC; type: cell-based; conditions: Haemophilus influenzae
Procedure: as §1

H. influenzae ATCC 49247 = assay: In vitro antibacterial activity, MBC; type: cell-based; conditions: Haemophilus influenzae
Procedure: as §1

[4] = system: Ps. aeruginosa ATCC 27853; assay: In vitro antibacterial activity, MBC; type: cell-based; conditions: Pseudomonas aeruginosa
Procedure: as §1

[5] = system: S. epidermidis ATCC 12228; assay: In vitro antibacterial activity, MBC; type: cell-based; conditions: Staphylococcus epidermidis
Procedure: as §1

S. aureus ATCC 29213 = assay: In vitro antibacterial activity, MBC; type: cell-based; conditions: Staphylococcus aureus
Procedure: as §1

[6] = system: St. Pneumoniae ATCC 49619; assay: In vitro antibacterial activity, MBC; type: cell-based; conditions: Streptococcus pneumoniae
Procedure: as §1

S. aureus ATCC 6538P = assay: In vitro antibacterial activity, MBC; type: cell-based; conditions: Staphylococcus aureus, ATCC6538P
Procedure: as §1

S. aureus ATCC 25923 = assay: In vitro antibacterial activity, MBC; type: cell-based; conditions: Staphylococcus aureus
Procedure: as §1

[7] = Azithromycin distribution in aqueous humor after topical application; type: in vivo, white New Zealand rabbits; conditions: detection limit 3.8
Procedure: (§2) Twelve male white New Zealand rabbits (weighing 1.8-2.3 kg) have been randomly divided in three groups (consisting of four animals each).
(§3) I Group: three instillations (animals have been sacrificed 6 hours after the first dosing)
(§4) II Group: six instillations (animals have been sacrificed 12 hours after the first dosing)
(§5) III Group: six instillations (animals have been sacrificed 24 hours after the first dosing)
(§6) Aqueous humor has been drawn away with a 23-gauge needle attached to an insulin syringe of 1 ml. After enucleation the cornea has been excised at the limbus and removed from the eyeball. All specimens have been carefully weighed, then immediately frozen at -20° C. […] Each specimen has been ground and homogenized with 1 ml of PBS (2 min., 24,000 rpm). The suspension has been mixed with an equal volume of acetonitrile and stored at 0° C. After 1 hour, the samples have been centrifuged at 0° C. […] Aqueous humor has been directly mixed with acetonitrile before being centrifuged.

in vivo [8] = assay: in vivo; set-up: species or system white New Zealand rabbits; conditions: rabbit, topical or ocular, Ct (tissue concentration of azithromycin)
Procedure: as §2, §3, §4, §5, §6

in vivo [9] = conditions: rabbit, topical or ocular, Ct (tissue concentration of azithromycin)
Procedure: as §2, §3, §4, §5, §6

CC[C@H]1OC(=O)[C@H](C)[C@@H](O[C@H]2C[C@@](C)(OC)[C@@H](O)[C@H](C)O2)[C@H](C)[C@@H](O[C@@H]2O[C@H](C)C[C@H](N(C)C)[C@H]2O)[C@](C)(O)C[C@@H](C)CN(C)[C@H](C)[C@@H](O)[C@]1(C)O [azithromycin]
antibacterial efficacy (gram-positive organisms): same efficacy | effect of azithromycin concentration on stability [1]: does not affect the stability of the final product | water solubility [2]: poor water solubility | solubilization by citric acid ([3]; citric acid, physiological range of pH): elevated concentration | equivalent point ([3]; titration with citric acid): ~7.0 pH | MBC (St. Pyogenes ATCC 21547; ATCC21547, pH 6.5): 3 µg/mL (≈ 4.01 µM) | MBC (St. Pyogenes ATCC 21547; ATCC21547, pH 7.2): 0.6 µg/mL (≈ 0.801 µM) | MBC (St. Pyogenes ATCC 21547; ATCC21547, pH 7.5): 0.35 µg/mL (≈ 0.467 µM) | MBC (Ps. aeruginosa ATCC 9027; ATCC9027, pH 7.2): > 200 µg/mL | MBC (Ps. aeruginosa ATCC 9027; ATCC9027, pH 7.5): 200 µg/mL (≈ 267 µM) | MBC (H. influenzae ATCC 9006; ATCC9006, pH 6.5): 6 µg/mL (≈ 8.01 µM) | MBC (H. influenzae ATCC 9006; ATCC9006, pH 7.2): 3.5 µg/mL (≈ 4.67 µM) | MBC (H. influenzae ATCC 9006; ATCC9006, pH 7.5): 3.5 µg/mL (≈ 4.67 µM) | MBC (H. influenzae ATCC 49247; ATCC49247, pH 6.5): 7 µg/mL (≈ 9.35 µM) | MBC (H. influenzae ATCC 49247; ATCC49247, pH 7.2): 3.5 µg/mL (≈ 4.67 µM) | MBC (H. influenzae ATCC 49247; ATCC49247, pH 7.5): 3 µg/mL (≈ 4.01 µM) | MBC ([4]; ATCC27853, pH 7.2): 100 µg/mL (≈ 134 µM) | MBC ([4]; ATCC27853, pH 7.5): 50 µg/mL (≈ 66.8 µM) | MBC ([5]; ATCC12228, pH 6.5): > 4 µg/mL | MBC ([5]; ATCC12228, pH 7.2): 3 µg/mL (≈ 4.01 µM) | MBC ([5]; ATCC12228, pH 7.5): 2 µg/mL (≈ 2.67 µM) | MBC (S. aureus ATCC 29213; ATCC29213, pH 6.5): > 4 µg/mL | MBC (S. aureus ATCC 29213; ATCC29213, pH 7.2): > 4 µg/mL | MBC (S. aureus ATCC 29213; ATCC29213, pH 7.5): 2.25 µg/mL (≈ 3 µM) | MBC ([6]; ATCC49619, pH 6.5): 3 µg/mL (≈ 4.01 µM) | MBC ([6]; ATCC49619, pH 7.2): 0.45 µg/mL (≈ 0.601 µM) | MBC ([6]; ATCC49619, pH 7.5): 0.3 µg/mL (≈ 0.401 µM) | MBC (S. aureus ATCC 6538P; pH 6.5): > 4 µg/mL | MBC (S. aureus ATCC 6538P; pH 7.2): 2.5 µg/mL (≈ 3.34 µM) | MBC (S. aureus ATCC 6538P; pH 7.5): 1.75 µg/mL (≈ 2.34 µM) | MBC (S. aureus ATCC 25923; ATCC25923, pH 6.5): > 4 µg/mL | MBC (S. aureus ATCC 25923; ATCC25923, pH 7.2): 3.25 µg/mL (≈ 4.34 µM) | MBC (S. aureus ATCC 25923; ATCC25923, pH 7.5): 2 µg/mL (≈ 2.67 µM) | azithromycin concentration in aqueous humor [7]: < 3.8 µg/mL | concentration at 6 h (in vivo [8]): < 200000 ng/g | concentration at 6 h (in vivo [8]; Average): 250000 ng/g | concentration at 24 h (in vivo [8]; Average): 420000 ng/g | concentration at 6 h (in vivo [9]): < 100000 ng/g
